Test results reported in ChEMBL document CHEMBL1201862, “PubChem BioAssay data set” (2004).
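Test compounds were applied to cells in 96-well plates for 48 hours at 5 doses. GI50 is the concentration that inhibits growth by half.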 Calls of active or inactive are those of the source. Cut-off read from the data, not from the text of the source: active = GI50 up to about 1.1 µM and inactive = higher.

Columns and labels:
Experiment in all cases: DTP human tumour cell line panel, 48 h
SF-268 = tested on: SF-268
CCRF-CEM = tested on: CCRF-CEM
UO-31 = tested on: UO-31
COLO 205 = tested on: COLO 205
786-0 = tested on: 786-0
NCI-H522 = tested on: NCI-H522
TK-10 = tested on: TK-10
OVCAR-5 = tested on: OVCAR-5
Malme-3M = tested on: Malme-3M
HT-29 = tested on: HT-29
ACHN = tested on: ACHN
HOP-62 = tested on: HOP-62
SF-295 = tested on: SF-295
SF-539 = tested on: SF-539
NCI-H460 = tested on: NCI-H460
A498 = tested on: A498
IGROV-1 = tested on: IGROV-1
CAKI-1 = tested on: CAKI-1
SK-MEL-2 = tested on: SK-MEL-2
SK-OV-3 = tested on: SK-OV-3

Measured: GI50

Cc1cc(Cl)ccc1NC(=O)C1C(=O)N(c2ccc(Cl)cc2C)C(=O)/C1=N\NC(N)=S (configuration not stated)
inactive: SF-268 35.6 µM | CCRF-CEM 22.5 µM | UO-31 17 µM | COLO 205 32.1 µM | 786-0 32.6 µM | NCI-H522 17.1 µM | TK-10 47.9 µM | OVCAR-5 24.3 µM | Malme-3M 18.7 µM | HT-29 18.7 µM | ACHN 36.2 µM | HOP-62 21.3 µM | SF-295 29.9 µM | SF-539 26.1 µM | NCI-H460 31.6 µM | A498 23.6 µM

O=C(O)C(CO)NC(=O)n1c2ccccc2c2ccccc21 (configuration not stated)
inactive: SF-268 > 100 µM | CCRF-CEM > 100 µM | COLO 205 > 100 µM | 786-0 > 100 µM | IGROV-1 > 100 µM | NCI-H522 > 100 µM | TK-10 > 100 µM | CAKI-1 > 100 µM | SK-MEL-2 > 100 µM | Malme-3M > 100 µM | HT-29 > 100 µM | ACHN > 100 µM | HOP-62 > 100 µM | SF-295 > 100 µM | SF-539 > 100 µM | NCI-H460 > 100 µM | SK-OV-3 > 100 µM

CC(=O)CC(=O)c1cc2c(=O)oc(C)cc2oc1=O
inactive: SF-268 > 37.5 µM | CCRF-CEM > 37.5 µM | UO-31 > 37.5 µM | COLO 205 > 37.5 µM | 786-0 > 37.5 µM | IGROV-1 > 37.5 µM | NCI-H522 > 37.5 µM | TK-10 > 37.5 µM | CAKI-1 > 37.5 µM | SK-MEL-2 > 37.5 µM | OVCAR-5 > 37.5 µM | Malme-3M > 37.5 µM | HT-29 > 37.5 µM | ACHN > 37.5 µM | HOP-62 > 37.5 µM | SF-295 > 37.5 µM | SF-539 > 37.5 µM | NCI-H460 > 37.5 µM | SK-OV-3 > 37.5 µM

O=C1Nc2c(ccc(Cl)c2I)C1=O
inactive: SF-268 20 µM | CCRF-CEM 20.2 µM | UO-31 18.2 µM | COLO 205 16.3 µM | 786-0 15 µM | IGROV-1 16.6 µM | NCI-H522 15.6 µM | TK-10 36.2 µM | CAKI-1 16.4 µM | SK-MEL-2 13.7 µM | OVCAR-5 20 µM | Malme-3M 15 µM | HT-29 28.4 µM | ACHN 15.6 µM | HOP-62 20.8 µM | SF-295 19.2 µM | NCI-H460 17.9 µM | SK-OV-3 18.5 µM

O=C1C=C(c2[nH]c3ccccc3c2C2=CC(=O)c3ccccc3C2=O)C(=O)c2ccccc21
inactive: SF-268 34.4 µM | CCRF-CEM 16.8 µM | UO-31 > 100 µM | COLO 205 > 100 µM | 786-0 > 100 µM | IGROV-1 30.1 µM | TK-10 94.4 µM | OVCAR-5 > 100 µM | HT-29 > 100 µM | ACHN 44.9 µM | SF-295 36.1 µM | SF-539 34.8 µM | NCI-H460 35.6 µM | SK-OV-3 54.1 µM | A498 > 100 µM

Cc1ccc(Cl)c2c(=O)cc(-c3ccccc3)[nH]c12
inactive: SF-268 58.6 µM | CCRF-CEM 52.7 µM | UO-31 37.9 µM | COLO 205 > 100 µM | 786-0 > 100 µM | IGROV-1 85.3 µM | NCI-H522 63.7 µM | TK-10 70.6 µM | CAKI-1 84.9 µM | SK-MEL-2 47.9 µM | OVCAR-5 71.6 µM | Malme-3M 51.6 µM | HT-29 50.4 µM | ACHN 42.3 µM | HOP-62 54.3 µM | SF-295 55.8 µM | SF-539 80.2 µM | NCI-H460 36.2 µM | SK-OV-3 > 100 µM

O=C(c1cccs1)N(C(=S)N1CCN(c2ccccn2)CC1)c1ccccc1
inactive: SF-268 87.3 µM | CCRF-CEM > 100 µM | UO-31 39.2 µM | COLO 205 > 100 µM | 786-0 > 100 µM | IGROV-1 > 100 µM | NCI-H522 36.2 µM | TK-10 > 100 µM | CAKI-1 76 µM | SK-MEL-2 57.4 µM | OVCAR-5 > 100 µM | Malme-3M > 100 µM | HT-29 > 100 µM | ACHN > 100 µM | HOP-62 > 100 µM | SF-295 80.4 µM | SF-539 > 100 µM | NCI-H460 > 100 µM | SK-OV-3 > 100 µM

COc1cc(C=C2C(=O)OC(C)(C)OC2=O)cc(OC)c1OC
inactive: SF-268 > 100 µM | CCRF-CEM > 100 µM | UO-31 > 100 µM | COLO 205 > 100 µM | 786-0 > 100 µM | NCI-H522 > 100 µM | TK-10 > 100 µM | CAKI-1 > 100 µM | SK-MEL-2 > 100 µM | OVCAR-5 > 100 µM | Malme-3M > 100 µM | HT-29 > 100 µM | ACHN > 100 µM | SF-295 > 100 µM | SF-539 > 100 µM | NCI-H460 > 100 µM | SK-OV-3 > 100 µM

CCOC(=O)C(NCc1ccc2c(c1)OCO2)(NC(=O)c1ccccc1)C(F)(F)F (configuration not stated)
inactive: SF-268 > 100 µM | CCRF-CEM 19.5 µM | UO-31 51.3 µM | COLO 205 > 100 µM | 786-0 > 100 µM | IGROV-1 > 100 µM | NCI-H522 39.1 µM | TK-10 > 100 µM | CAKI-1 > 100 µM | SK-MEL-2 > 100 µM | OVCAR-5 > 100 µM | Malme-3M > 100 µM | HT-29 > 100 µM | ACHN > 100 µM | HOP-62 > 100 µM | SF-295 > 100 µM | SF-539 > 100 µM | SK-OV-3 > 100 µM

C/C(=N\NS(=O)(=O)c1ccc(C)cc1)c1cc2ccccc2n1C
inactive: SF-268 66.2 µM | CCRF-CEM > 100 µM | UO-31 > 100 µM | COLO 205 > 100 µM | 786-0 68.7 µM | IGROV-1 > 100 µM | NCI-H522 > 100 µM | SK-MEL-2 > 100 µM | Malme-3M > 100 µM | HT-29 76 µM | ACHN > 100 µM | HOP-62 > 100 µM | SF-295 > 100 µM | SF-539 > 100 µM | NCI-H460 > 100 µM | A498 > 100 µM

CC1=C(C(=O)Nc2ccccc2C)C(c2ccco2)C(C(=O)Nc2ccccc2C)=C(C)N1C
inactive: SF-268 > 100 µM | CCRF-CEM 50 µM | UO-31 > 100 µM | 786-0 > 100 µM | IGROV-1 > 100 µM | NCI-H522 > 100 µM | TK-10 > 100 µM | CAKI-1 > 100 µM | SK-MEL-2 > 100 µM | OVCAR-5 > 100 µM | Malme-3M > 100 µM | HT-29 > 100 µM | ACHN > 100 µM | HOP-62 > 100 µM | SF-295 > 100 µM | SF-539 > 100 µM | NCI-H460 > 100 µM | SK-OV-3 > 100 µM
